Tests used:
[1] = tested on: ECV 304 endothelial cells; assay: Examination of endothelial capillary formation; type: cell-based; details: for selectivity index: inhibits the capillary formation better than the cell proliferation, in relation to the borrelidin: ECV 304, from ratios of concentrations inhibiting cell proliferation in 50% and capillary formation, relative to borrelidin
Experimental: Basal membrane protein gel prepared from murine EHS tumor, which induces capillary formation, was put onto ECV 304 endothelial cells. The treatment with the borrelidin and the novel borrelidin derivatives of general formula (I) according to the invention was carried out in the same way as in case of the examination of cell proliferation. The extent by which the cells take part in the capillary formation was examined microscopically and by the aid of a morphometrical program, and the thus-obtained data were expressed in percent of the untreated control.
Namely, it has been stated that, relating to borrelidin, the cell-proliferation-inhibiting effect of the novel derivatives of general formula (I) definitely decreases whereas the capillary-formation-inhibiting effect changes only in a small degree or not at all. The relative degree of selectivity was determined for each compound by […] the ratios of the active agent concentrations that inhibit the cell proliferation in 50% and which inhibit the capillary formation.

[2] = tested on: Lewis lung adenocarcinoma; assay: Lewis lung adenocarcinoma metastasis model; type: in vivo; details: for inhibition of the increase of micrometastases: one fifth of the toxic dose
[3] = tested on: cells forming capillary tubules; details: cited from earlier work
[4] = tested on: cell lines WiDr of human colon cancer; details: cited from earlier work
[5] = tested on: PC-3 of human prostate cancer; details: cited from earlier work
[6] = in vivo; cited from earlier work
[7] = tested on: mouse colon adenocarcinoma cells transplanted into the spleen; assay: Colon 38 spleen-liver metastasis model; type: in vivo; details: subtoxic administration
Excerpt: 2. In a colon 38 spleen-liver model [Dong, Z. et al., J. Natl. Cancer Inst.

## C[C@@H]1C[C@H](C)C[C@H](C)[C@@H](O)CC(=O)O[C@H]([C@@H]2CCC[C@H]2C(=O)OCCN2CCOCC2)C/C=C/C=C(/C#N)[C@H](O)[C@@H](C)C1 [Example 1, Borrelidin-2-morpholinoethyl ester]
[1]
  selectivity index: inhibits the capillary formation better than the cell proliferation, in relation to the borrelidin: 60 times

## C[C@@H]1C[C@H](C)C[C@H](C)[C@@H](O)CC(=O)O[C@H]([C@@H]2CCC[C@H]2C(=O)O)C/C=C/C=C(/C#N)[C@H](O)[C@@H](C)C1 [borrelidin, 2′-(7-cyano-8,16-dihydroxy-9,11,13,15-tetramethyl-18-oxo-oxacyclooctadeca-4,6-dien-2-yl)-cyclopentane-1′-carboxylic acid]
[2]; Lewis lung adenocarcinoma model
  inhibition of the propagation of metastatic nodules formed after removing the primary tumour in lung: inhibited in a very small degree
[1]; endothelial cells
  difference in sensitivity of proliferation and capillary formation by the endothelial cells, in favour of capillary formation: about a five fold difference
[3]
  angiogenesis-inhibiting effect: induces the apoptosis of the cells forming capillary tubules
[4]
  effectiveness against cell line: effective
[5]
  effectiveness against cell line: effective
[6]
  LD50 value: medium

## CC1CC(C)CC(C)C(O)C(C#N)=CC=CCC(C2CCCC2C(=O)NCCN2CCOCC2)OC(=O)CC(O)C(C)C1 (stereo not drawn) [Example 4, Borrelidin 2-morpholinoethyl amide]
[1]
  selectivity index: inhibits the capillary formation better than the cell proliferation, in relation to the borrelidin: 6 times

## CC1CC(C)CC(C)C(O)CC(=O)OC(C2CCCC2C(=O)NCc2cccnc2)C(C#N)=CC=CCC(O)C(C)C1 (stereo not drawn) [Example 15, Borrelidin-3-picolylamide]
[2]; intraperitoneal administration
  inhibition of the increase of micrometastases: inhibited very considerably
[2]; per os administration
  inhibition of the increase of micrometastases: inhibited very considerably
[7]
  metastasis-forming ability of mouse colon adenocarcinoma cells transplanted into the spleen: considerably decreased

## CC1CC(C)CC(C)C(O)C(C#N)=CC=CCC(C2CCCC2C(=O)OCCc2ccccn2)OC(=O)CC(O)C(C)C1 (stereo not drawn) [Example 2, Borrelidin-2-(2-pyridyl)-ethyl ester]
[1]
  selectivity index: inhibits the capillary formation better than the cell proliferation, in relation to the borrelidin: 7.5 times
